In patent EP2545050B1, “COMPOUNDS FOR THE TREATMENT OF HEPATITIS C” (Bristol-Myers Squibb Company, priority 2010, dated 2011) one finds EC50 and hepatic toxicity data, which are given here for eleven molecules.

One series has as its system HCV replicon. As to the kind of experiment: HCV replicon assay (FRET or luciferase reporter). The format is cell-based. Conditions: Hepatitis C virus; HCV replicon cells; Table 1. The text has this:
FRET Assay Preparation. To perform the HCV FRET screening assay, 96-well cell culture plates were used. The FRET peptide (Anaspec, Inc.) (Taliani et al., Anal. Biochem. 1996, 240, 60-67) contains a fluorescence donor, EDANS, near one end of the peptide and an acceptor, DABCYL, near the other end. The fluorescence of the peptide is quenched by […] resonance energy transfer (RET) between the donor and the acceptor, but as the NS3 protease cleaves the peptide the products are released from RET quenching and the fluorescence of the donor becomes apparent. The assay reagent was made as follows: 5X cell Luciferase cell culture lysis reagent from Promega (#E153A) diluted to 1X with dH2O, NaCl added to 150 mM final, the FRET peptide diluted to 20 µM final from a 2 mM stock.
To prepare plates, HCV replicon cells, with or without a Renilla luciferase reporter gene, were trypsinized and placed into each well of a 96-well plate with titrated test compounds added in columns 3 through 12; columns 1 and 2 contained a control compound (HCV protease inhibitor), and the bottom row contained cells without compound. The plates were then placed in a CO2 incubator at 37 °C.
Assays. Subsequent to addition of the test compounds described above (FRET Assay Preparation), at various times the plate was removed and Alamar blue solution (Trek Diagnostics, #00-100) was added per well as a measure of cellular toxicity. After reading in a Cytoflour 4000 instrument (PE Biosystems), plates were rinsed with PBS and then used for FRET assay by the addition of 30 ul of the FRET peptide assay reagent described above (FRET Assay Preparation) per well. The plate was then placed into the Cytoflour 4000 instrument which had been set to 340 excite/490 emission, automatic mode for 20 cycles and the plate read in a kinetic mode. Typically, the signal to noise using an endpoint analysis after the reads was at least three-fold. Alternatively, after Alamar blue reading, plates were rinsed with PBS, 50 ul of DMEM (high glucose) without phenol red was added and plates were then used for luciferase assay using the Promega Dual-Glo Luciferase Assay System.
Compound analysis was determined by quantification of the relative HCV replicon inhibition and the relative cytotoxicity values. To calculate cytoxicity values, the average Alamar Blue fluorescence signals from the control wells were set as 100% non-toxic. The individual signals in each of the compound test wells were then divided by the average control signal and multiplied by 100% to determine […]. To calculate the HCV replicon inhibition values, an average background value was obtained from the two wells containing the highest amount of HCV protease inhibitor at the end of the assay period. These numbers were similar to those obtained from naive Huh-7 cells.
The background numbers were then subtracted from the average signal obtained from the control wells and this number was used as 100% activity. The individual signals in each of the compound test wells were then divided by the averaged control values after background subtraction and multiplied by 100% to determine percent activity. EC50 values for a protease inhibitor titration were calculated as the concentration which caused a 50% reduction in FRET or luciferase activity. The two numbers generated for the compound plate, percent cytoxicity and percent activity were used to determine compounds of interest for further analysis.
HCV Replicon Luciferase Reporter Assay
The HCV replicon luciferase assay was developed to monitor the inhibitory effects of compounds described in the disclosure on HCV viral replication. Utilization of a replicon luciferase reporter assay was first described by Krieger et al (Krieger N, Lohmann V, and Bartenschlager R, J. Virol. 75(10):4614-4624 (2001)). […]
For the molecule `CNC(=O)c1c(-c2ccc(F)cc2)nn2ccc(-c3cc(C(=O)NC4(c5ncccn5)CC4)c(OCC4CCOCC4)nc3C)c(F)c12` [4-fluoro-2-(4-fluorophenyl)-N-methyl-5-(2-methyl-5-(1-(pyrimidin-2-yl)cyclopropylcarbamoyl)-6-((tetrahydro-2H-pyran-4-yl)methoxy)pyridin-3-yl)pyrazolo[1,5-a]pyridine-3-carboxamide], the EC50 was in the range of 0.002 to 0.25 µM.

`CNC(=O)c1c(-c2ccc(F)cc2)nn2ccc(-c3cc(C(=O)NC4(c5ccccc5)CC4)c(OC)nc3C)c(F)c12` [4-fluoro-2-(4-fluorophenyl)-5-(6-methoxy-2-methyl-5-(1-phenylcyclopropylcarbamoyl)pyridin-3-yl)-N-methylpyrazolo[1,5-a]pyridine-3-carboxamide] returned a concentration for a half-maximal effect (EC50) of 0.002 to 0.25 µM. Same read-out and setting: for `CNC(=O)c1c(-c2ccc(F)cc2)nn2ccc(-c3cc(C(=O)NC4(c5ccnnc5)CC4)c(OC)cc3C)c(F)c12` [4-fluoro-2-(4-fluorophenyl)-5-(4-methoxy-2-methyl-5-(1-(pyridazin-4-yl)cyclopropylcarbamoyl)phenyl)-N-methylpyrazolo[1,5-a]pyridine-3-carboxamide] the value was 1 to 10 µM. Still for that read-out and setting: then `CNC(=O)c1c(-c2ccc(F)cc2)nn2ccc(-c3cc(C(=O)NC4(c5ccccn5)CC4)c(OC(F)F)nc3C)c(F)c12` [5-(6-(difluoromethoxy)-2-methyl-5-(1-(pyridin-2-yl)cyclopropylcarbamoyl)pyridin-3-yl)-4-fluoro-2-(4-fluorophenyl)-N-methylpyrazolo[1,5-a]pyridine-3-carboxamide], with 0.002 to 0.25 µM; and `CNC(=O)c1c(-c2ccc(F)cc2)nn2ccc(-c3cc(C(=O)NC4(c5cc(F)ccn5)CC4)c(OC)nc3C)c(F)c12` [4-fluoro-2-(4-fluorophenyl)-5-(5-(1-(4-fluoropyridin-2-yl)cyclopropylcarbamoyl)-6-methoxy-2-methylpyridin-3-yl)-N-methylpyrazolo[1,5-a]pyridine-3-carboxamide], with 0.002 to 0.25 µM. Still for that read-out and setting: for `CNC(=O)c1c(-c2ccc(F)cc2)nn2ccc(-c3cc(C(=O)NC4(c5nccc(O)n5)CC4)c(OC)cc3C)c(F)c12` [4-fluoro-2-(4-fluorophenyl)-5-(5-(1-(4-hydroxypyrimidin-2-yl)cyclopropylcarbamoyl)-4-methoxy-2-methylphenyl)-N-methylpyrazolo[1,5-a]pyridine-3-carboxamide] the value was 1 to 10 µM; for `CNC(=O)c1c(-c2ccc(F)cc2)nn2ccc(-c3cc(C(=O)NC4(c5ccccc5)CC4)c(OC(F)F)nc3C)c(F)c12` [5-(6-(difluoromethoxy)-2-methyl-5-(1-phenylcyclopropylcarbamoyl)pyridin-3-yl)-4-fluoro-2-(4-fluorophenyl)-N-methylpyrazolo[1,5-a]pyridine-3-carboxamide], 0.002 to 0.25 µM. For the molecule `CNC(=O)c1c(-c2ccc(F)cc2)nn2ccc(-c3cc(C(=O)NC4(c5ccccn5)CC4)c(OCC4CCOCC4)nc3C)c(F)c12` [4-fluoro-2-(4-fluorophenyl)-N-methyl-5-(2-methyl-5-(1-(pyridin-2-yl)cyclopropylcarbamoyl)-6-((tetrahydro-2H-pyran-4-yl)methoxy)pyridin-3-yl)pyrazolo[1,5-a]pyridine-3-carboxamide], the EC50 is 0.002 to 0.25 µM.

Molecule `CNC(=O)c1c(-c2ccc(F)cc2)nn2ccc(-c3cc(C(=O)NC4(c5cnccn5)CC4)c(OC)cc3C)c(F)c12` [4-fluoro-2-(4-fluorophenyl)-5-(4-methoxy-2-methyl-5-(1-(pyrazin-2-yl)cyclopropylcarbamoyl)phenyl)-N-methylpyrazolo[1,5-a]pyridine-3-carboxamide] came in with a concentration for a half-maximal effect (EC50) of 0.002 to 0.25 µM. Turning to `CNC(=O)c1c(-c2ccc(F)cc2)nn2ccc(-c3cc(C(=O)NC4(c5ccccn5)CC4)c(OC)nc3C)c(F)c12` [4-fluoro-2-(4-fluorophenyl)-5-(6-methoxy-2-methyl-5-(1-(pyridin-2-yl)cyclopropylcarbamoyl)pyridin-3-yl)-N-methylpyrazolo[1,5-a]pyridine-3-carboxamide], the EC50 was in the range of 0.002 to 0.25 µM.

A further series relates to HCV.
Assay: not given
Conditions: extended dosing of the combination regimens; development suspended; cited from earlier work.
In the case of `CNC(=O)c1c(-c2ccc(F)cc2)oc2cc(N(CCO)S(C)(=O)=O)c(C3CC3)cc12` [HCV-796], the hepatic toxicity result is reported as “hepatic toxicity observed”.

In general, EC50 refers to the concentration giving half of the maximal effect.
